From US9718788B2, “Heteroaryl compounds useful as inhibitors of E1 activating enzymes” (MILLENNIUM PHARMACEUTICALS, INC., priority 2006, dated 2017) come the findings set out here.

Molecules are shown by their SMILES.

In this experiment the target is T1, recombinant human NAE enzyme (Homo sapiens, UniProt Q8TBC4).
T1 construct: His (N); made in house; host or cells: Sf9 insect cells (baculovirus, Bac-to-Bac)
T1 sequence (Q8TBC4 1-463): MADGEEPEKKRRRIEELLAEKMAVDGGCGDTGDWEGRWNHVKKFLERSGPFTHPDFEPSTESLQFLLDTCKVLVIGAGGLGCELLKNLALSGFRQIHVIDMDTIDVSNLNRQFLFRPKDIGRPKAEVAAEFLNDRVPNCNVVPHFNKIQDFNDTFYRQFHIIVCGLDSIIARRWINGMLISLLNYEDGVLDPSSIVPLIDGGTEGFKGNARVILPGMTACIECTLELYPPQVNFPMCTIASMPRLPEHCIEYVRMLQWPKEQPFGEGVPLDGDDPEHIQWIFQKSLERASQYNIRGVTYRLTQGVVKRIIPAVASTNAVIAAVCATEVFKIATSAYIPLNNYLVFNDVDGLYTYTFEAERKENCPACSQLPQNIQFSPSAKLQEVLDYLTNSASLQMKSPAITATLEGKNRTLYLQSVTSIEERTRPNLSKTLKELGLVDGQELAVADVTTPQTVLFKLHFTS
T1 sequence (Q13564 1-534 partner): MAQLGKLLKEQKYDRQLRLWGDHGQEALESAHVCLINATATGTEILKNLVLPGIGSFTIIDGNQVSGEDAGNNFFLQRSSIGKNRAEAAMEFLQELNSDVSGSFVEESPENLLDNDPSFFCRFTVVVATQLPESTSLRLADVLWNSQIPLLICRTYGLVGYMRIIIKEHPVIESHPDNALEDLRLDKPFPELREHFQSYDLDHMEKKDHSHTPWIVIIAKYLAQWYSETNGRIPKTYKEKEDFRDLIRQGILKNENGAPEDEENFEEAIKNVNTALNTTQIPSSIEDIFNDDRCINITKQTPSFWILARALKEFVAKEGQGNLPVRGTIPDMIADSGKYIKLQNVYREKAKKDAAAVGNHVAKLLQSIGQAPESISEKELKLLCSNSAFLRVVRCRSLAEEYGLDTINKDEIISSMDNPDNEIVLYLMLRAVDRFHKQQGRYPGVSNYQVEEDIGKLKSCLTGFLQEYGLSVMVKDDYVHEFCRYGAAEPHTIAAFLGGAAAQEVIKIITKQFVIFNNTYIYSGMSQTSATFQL
Put plainly: Nedd8-Activating Enzyme (NAE) HTRF Assay. The experiment is classed as biochemical. As to conditions: 20 μM ATP. The method, then:
Following manufacturer instructions, baculoviruses were generated with the Bac-to-Bac Expression System (Invitrogen) for the following proteins: untagged NAEα (APPBP1; NP_003896.1), N-terminally His-tagged NAEJ (UBE1C; NP_003959.3), untagged SAEα (SAE1; NP_005491.1), N-terminally His-tagged SAE3 (UBA2; NP_005490.1), N-terminally His-tagged murine UAE (UBE1X; NP_033483). NAEα/His-NAEβ and SAEα/His-SAEβ complexes were generated by co-infection of Sf9 cells, which were harvested after 48 hours. His-mUAE was generated by single infection of Sf9 cells and harvested after 72 hours. Expressed proteins were purified by affinity chromatography (Ni-NTA agarose, Qiagen) using standard buffers. Nedd8-Activating Enzyme (NAE) HTRF Assay. The NAE enzymatic reaction totaled 50 μL and contained 50 mM HEPES (pH 7.5), 0.05% BSA, 5 mM MgCl2, 20 μM ATP, 250 μM GSH, 0.01 μM Ubc12-GST, 0.075 μM Nedd8-Flag and 0.20 nM recombinant human NAE enzyme. The enzymatic reaction mixture, with and without compound inhibitor, was incubated at room temperature 24° C. for 105 minutes in a 384-well plate before termination with 25 μL of Stop/Detection buffer (0.1M HEPES pH 7.5, 0.05% Tween20, 20 mM EDTA, 410 mM KF, 0.53 nM Europium-Cryptate labeled monoclonal anti-FLAG M2 antibody (CisBio International) and 8.125 μg/mL PHYCOLINK goat anti-GST allophycocyanin (XL-APC) antibody (Prozyme)). After incubation for 1 hour at 24° C., quantification of the FRET was performed on the Analyst™ HT 96.384 (Molecular Devices).
For orientation: In TR-FRET formats the signal depends on donor and acceptor labels being close together.

Usually IC50 stands for the concentration that gives 50% inhibition.

In the case of `CN(c1ncnc2c1nc(-c1ccccc1)n2C)[C@@H]1C[C@@H](COS(N)(=O)=O)[C@@H](O)C1` [Compound I-123, {(1S,2S,4R)-2-hydroxy-4-[methyl(9-methyl-8-phenyl-9H-purin-6-yl)amino]cyclopentyl}-methyl sulfamate], the IC50 was more than 500 nM (bound given in nM) and less than 10000 nM (bound given in μM).
The corresponding values for `NS(=O)(=O)OC[C@H]1C[C@@H](Nc2nc(N[C@H]3CCc4ccccc43)ncc2F)[C@H](O)[C@@H]1O` [Compound I-113, [(1R,2R,3S,4R)-4-({2-[(1S)-2,3-dihydro-1H-inden-1-ylamino]-5-fluoropyrimidin-4-yl}-amino)-2,3-dihydroxycyclopentyl]methyl sulfamate] are more than 500 nM and less than 10000 nM.
Take `NS(=O)(=O)OC[C@@H]1C[C@@H](Nc2ncnc3[nH]c(-c4cccc5ccccc45)nc23)C[C@@H]1O` [Compound I-49, ((1S,2S,4R)-2-hydroxy-4-{[8-(1-naphthyl)-9H-purin-6-yl]amino}cyclopentyl)-methyl sulfamate]: the IC50 (bound given in nM) was not above 500 nM.
Regarding `NS(=O)(=O)OC[C@H]1C[C@@H](O)[C@H](Nc2cc(N[C@H]3CCc4ccccc43)ncn2)C1` [Compound I-58, [(1R,3R,4R)-3-({6-[(1S)-2,3-dihydro-1H-inden-1-ylamino]pyrimidin-4-yl}-amino)-4-hydroxycyclopentyl]methyl sulfamate], the IC50 (bound given in μM) was more than 10000 nM.
Turning to `NS(=O)(=O)OC[C@H]1C[C@@H](Nc2cc(NCc3ccccc3)ncn2)[C@H](O)[C@@H]1O` [Compound I-27, ((1R,2R,3S,4R)-4-{[6-(benzylamino)pyrimidin-4-yl]amino}-2,3-dihydroxycyclopentyl)-methyl sulfamate], the IC50 (bound given in nM) was not above 500 nM.
As for `CN(C)c1ccc(-c2nc3c(N[C@@H]4C[C@@H](COS(N)(=O)=O)[C@@H](O)C4)ncnc3[nH]2)c2ccccc12` [Compound I-64, [(1S,2S,4R)-4-({8-[4-(dimethylamino)-1-naphthyl]-9H-purin-6-yl}amino)-2-hydroxycyclopentyl]methyl sulfamate], the IC50 (bound given in nM) was not above 500 nM.
Same read-out and setting: to `Cc1nc(N[C@H]2CCc3ccccc32)cc(N[C@@H]2C[C@H](COS(N)(=O)=O)[C@@H](O)[C@H]2O)n1` [Compound I-18, [(1R,2R,3S,4R)-4-({6-[(1S)-2,3-dihydro-1H-inden-1-ylamino]-2-methylpyrimidin-4-yl}-amino)-2,3-dihydroxycyclopentyl]methyl sulfamate] belongs not above 500 nM; to `NS(=O)(=O)OC[C@@H]1C[C@@H](Oc2ncnc3nc(-c4ccc(N5CCCC5)c5ccccc45)[nH]c23)C[C@@H]1O` [Compound I-139, ((1S,2S,4R)-2-hydroxy-4-{[8-(4-pyrrolidin-1-yl-1-naphthyl)-7H-purin-6-yl]oxy}cyclopentyl)methyl sulfamate], not above 500 nM.
The same measure, in the same setting: to `NS(=O)(=O)OC[C@@H]1C[C@@H](Nc2ncnc3[nH]c(-c4cccc5c4CCCC5)nc23)C[C@@H]1O` [Compound I-126, ((1S,2S,4R)-2-hydroxy-4-{[8-(5,6,7,8-tetrahydronaphthalen-1-yl)-9H-purin-6-yl]amino}cyclopentyl)methyl sulfamate] belongs not above 500 nM; to `NS(=O)(=O)OC[C@H]1C[C@@H](Nc2cc(NCC3CCCCC3)ncn2)[C@H](O)[C@@H]1O` [Compound I-14, [(1R,2R,3S,4R)-4-({6-[(cyclohexylmethyl)amino]pyrimidin-4-yl}amino)-2,3-dihydroxycyclopentyl]methyl sulfamate], not above 500 nM.
On to `NS(=O)(=O)OC[C@@H]1C[C@@H](Oc2ncnc3c2ncn3Cc2ccccc2)C[C@@H]1O` [Compound I-80, {(1S,2S,4R)-4-[(9-benzyl-9H-purin-6-yl)oxy]-2-hydroxycyclopentyl}methyl sulfamate], for which the IC50 (bound given in nM) was more than 500 nM and the IC50 (bound given in μM) was less than 10000 nM.
